In US5691373A, “Nonpeptide endothelin antagonists I” (Warner-Lambert Company, priority 1995, dated 1997):

Legend:
human ETB receptor = target: T1, human ETB receptor (Homo sapiens, UniProt P24530); test: ERBA-B: [125I]-ET-1 binding, recombinant human ETB receptor expressed in CHO-K1 cells; conditions: human cloned ETB receptor, read-out: ERBA-B IC50, human cloned receptor data
T1 construct: expressed in transfected cells; host or cells: CHO-K1 cells, pRc-CMW (so in the source) expression vector, electroporation; membranes used
T1 sequence (P24530 27-442): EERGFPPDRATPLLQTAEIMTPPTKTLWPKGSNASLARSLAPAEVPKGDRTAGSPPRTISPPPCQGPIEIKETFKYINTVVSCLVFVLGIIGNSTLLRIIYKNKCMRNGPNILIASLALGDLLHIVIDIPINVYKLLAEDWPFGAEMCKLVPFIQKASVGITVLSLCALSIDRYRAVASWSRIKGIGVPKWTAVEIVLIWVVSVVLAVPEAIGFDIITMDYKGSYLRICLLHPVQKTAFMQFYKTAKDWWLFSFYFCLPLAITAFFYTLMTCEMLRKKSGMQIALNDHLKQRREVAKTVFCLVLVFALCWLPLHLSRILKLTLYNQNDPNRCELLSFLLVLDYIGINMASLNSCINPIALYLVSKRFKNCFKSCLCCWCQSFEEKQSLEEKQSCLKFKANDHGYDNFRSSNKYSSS

ETA = target: T2, ETA (Oryctolagus cuniculus, UniProt A5A8K3); conditions: ERBA-A IC50, [125I]-ET-1, rabbit renal artery vascular smooth muscle cells
T2 sequence (A5A8K3 21-427): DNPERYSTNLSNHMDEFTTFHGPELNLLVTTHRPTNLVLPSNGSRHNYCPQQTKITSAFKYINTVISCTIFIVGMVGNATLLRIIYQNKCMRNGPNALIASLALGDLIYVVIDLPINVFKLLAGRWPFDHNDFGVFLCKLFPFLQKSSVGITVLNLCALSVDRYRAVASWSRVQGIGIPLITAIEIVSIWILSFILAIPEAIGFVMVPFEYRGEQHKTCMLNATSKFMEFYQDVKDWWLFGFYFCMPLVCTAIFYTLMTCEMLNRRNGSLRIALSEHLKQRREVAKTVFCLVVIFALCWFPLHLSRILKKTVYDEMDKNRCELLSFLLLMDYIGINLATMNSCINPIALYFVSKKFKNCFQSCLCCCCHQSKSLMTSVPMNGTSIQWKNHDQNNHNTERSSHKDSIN

Row | SMILES | IC50 (human ETB receptor) | IC50 (ETA)
1 | COc1ccc(C/C(C(=O)c2ccc(OC)cc2)=C(/C(=O)O)c2ccc3c(c2)OCO3)cc1 [Example 380, Sodium2-Benzo[1,3]dioxol-5-yl-3-(4-methoxy-benzyl)-4-(4-methoxy-phenyl)-4-o xo-but-2-enoate] | 2 µM | 0.024 µM
2 | COc1ccc(C2(O)OC(=O)C(c3ccc4c(c3)OCO4)=C2Cc2ccc(OC(C)C)c(OC)c2)cc1C (stereo not drawn) [Example 391, 3-Benzo[1,3]dioxol-5-yl-5-hydroxy-4-(4-isopropoxy-3-methoxy-benzyl)-5-(4-methoxy-3-methyl-phenyl)-5H-furan-2-one] | > 0.25 µM | 0.0018 µM
3 | COc1cc(OC)cc(/C(C(=O)O)=C(\Cc2c(OC)cc(OC)cc2OC)C(=O)c2ccc(OC)c(C)c2)c1 [Example 392] | 14 µM | 3.8 µM
4 | CCCCCCCCOc1ccc(CC2=C(c3ccc4c(c3)OCO4)C(=O)OC2(O)c2ccc(OC)c(C)c2)cc1OC (stereo not drawn) [Example 394, 3-Benzo[1,3]dioxol-5-yl-5-hydroxy-5-(4-methoxy-3-methyl-phenyl)-4-(3-methoxy-4-octyloxy-benzyl)-5H-furan-2-one] | 0.42 µM | 0.068 µM
5 | COc1ccc(C2(O)OC(=O)C(c3ccc4c(c3)OCO4)=C2Cc2ccc(OC(C)C)c(C)c2)cc1C (stereo not drawn) [Example 395, 3-Benzo[1,3]dioxol-5-yl-5-hydroxy-4-(4-isopropoxy-3-methyl-benzyl)-5-(4-methoxy-3-methyl-phenyl)-5H-furan-2-one] | 0.84 µM | 0.013 µM
6 | COc1ccc(C2(O)OC(=O)C(c3ccc4c(c3)OCO4)=C2Cc2ccc(OC3CCCCC3)c(C)c2)cc1 (stereo not drawn) [Example 397, 3-Benzo[1,3]dioxol-5-yl-4-(4-cyclohexyloxy-3-methylbenzyl)-5-hydroxy-5-(4-methoxy-phenyl)-5H-furan-2-one] | 2.6 µM | 0.61 µM
7 | COc1ccc(C2(O)OC(=O)C(c3ccc4c(c3)OCO4)=C2CC2CCCc3ccccc32)cc1 (stereo not drawn) [Example 398, 3-Benzo[1,3]dioxol-5-yl-5-hydroxy-5-(4-methoxy-phenyl)-4-(1,2,3,4-tetrahydro-naphthalen-1-ylmethyl)-5H-furan-2-one] | > 2.5 µM | 0.83 µM

Second part, the compound after the results:

Row | IC50 (human ETB receptor) | IC50 (ETA) | SMILES
8 | 0.57 µM | 0.068 µM | CCCCCCCCOc1ccc(CC2=C(c3cc(OC)cc(OC)c3)C(=O)OC2(O)c2ccc(OC)cc2)cc1OC (stereo not drawn) [Example 381, 3-(3,5-Dimethoxy-phenyl)-5-hydroxy-4-(3-methoxy-4-octyloxy-benzyl)-5-(4-methoxy-phenyl)-5H-furan-2-one]
9 | 0.69 µM | 0.0008 µM | COc1cc(OC)cc(C2=C(Cc3ccc(NC(C)=O)cc3)C(O)(c3ccc(OC)c(C)c3)OC2=O)c1 (stereo not drawn) [Example 385, N-{4-[4-(3,5-Dimethoxy-phenyl)-2-hydroxy-2-(4-methoxy-3-methyl-phenyl)-5-oxo-2,5-dihydro-furan-3-ylmethyl]-phenyl}-acetamide]
10 | 0.82 µM | 0.007 µM | COc1cc(OC)cc(C2=C(Cc3ccc(OC(C)C)c(OC)c3)C(O)(c3ccc(OC)c(C)c3)OC2=O)c1 (stereo not drawn) [Example 390, 3-(3,5-Dimethoxy-phenyl)-5-hydroxy-4-(4-isopropoxy-3-methoxy-benzyl)-5-(4-methoxy-3-methyl-phenyl)-5H-furan-2-one]
11 | 0.83 µM | 0.24 µM | CCCCCCCCOc1ccc(CC2=C(c3cc(OC)cc(OC)c3)C(=O)OC2(O)c2ccc(OC)c(C)c2)cc1OC (stereo not drawn) [Example 393, 3-(3,5-Dimethoxy-phenyl)-5-hydroxy-5-(4-methoxy-3-methyl-phenyl)-4-(3-methoxy-4-octyloxy-benzyl)-5H-furan-2-one]
12 | 1.2 µM | 0.047 µM | COc1cc(OC)cc(C2=C(Cc3ccc(OC(C)C)c(C)c3)C(O)(c3ccc(OC)c(C)c3)OC2=O)c1 (stereo not drawn) [Example 396, 3-(3,5-Dimethoxy-phenyl)-5-hydroxy-4-(4-isopropoxy-3-methyl-benzyl)-5-(4-methoxy-3-methyl-phenyl)-5H-furan-2-one]
